Laboratory results: patent publication US20250032568A1, “TRADITIONAL CHINESE MEDICINE COMPOSITION AND TRADITIONAL CHINESE MEDICINE DECOCTION FOR TREATING GASTROESOPHAGEAL REFLUX DISEASE (GERD), AND PREPARATION METHOD AND USE THEREOF” (AFFILIATED HOSPITAL OF JIANGXI UNIVERSITY OF TRADITIONAL …, priority 2023, published 2025)

Columns and labels:
Assay type in all cases: in vivo, human
[1] = system: gastroesophageal reflux disease (GERD); test: Clinical efficacy (total effective rate) in GERD patients; settings: 40 per group; for Efficacy (total effective rate): (Recovery+Significant effect+Effective)/total number of cases
Procedure: (§1) In this example, 80 patients who were diagnosed with GERD in the inpatient and outpatient departments of the Gastroenterology Department of the Affiliated Hospital of Jiangxi University of Traditional Chinese Medicine from 2022.6.1 to 2023.2-28 and met this standard were collected, with a total effective rate of 87.5%.
(§2) Treatment group: 100 mL Bid of the traditional Chinese medicine decoction prepared in Example 1
(§3) Control group: 20 mg Bid of an esomeprazole magnesium soluble capsule

[2] = system: gastroesophageal reflux disease (GERD); test: Reflux Disease Questionnaire (RDQ) score in GERD patients; settings: 40 per group, mean ± S
Procedure: as §1, §2, §3
1) Reflux Disease Questionnaire (RDQ)
RDQ is currently the most recognized and widely used diagnostic scale for GERD in the world.
The maximum score for frequency and symptom severity is 40 points, and the GERD is diagnosed when the RDQ score is >12 points.
RDQ scoring criteria: a. Scoring based on the frequency of symptom onset: based on the weekly frequency of four symptoms: heartburn, regurgitation, non-cardiac chest pain, and acid reflux, “never”, “1 week <1 d”, “1 d per 1 week”, “2-3 d per 1 week”, “4-5 d per 1 week”, and “almost every day” were scored as 0, 1, 2, 3, 4, and 5 points, respectively, with a maximum of 20 points. b. […]

[3] = system: gastroesophageal reflux disease (GERD); test: TCM symptom scoring in GERD patients; settings: 40 per group, mean ± S
Procedure: as §1, §2, §3
3) TCM symptom scoring: referring to the “Guiding Principles for Clinical Research of New Traditional Chinese Medicines” for scoring. The scoring criteria are as follows: primary symptoms including acid reflux, heartburn, belching and reflux; the secondary symptoms including retrosternal burning pain, throat discomfort, bitter mouth, nausea. There are 4 levels according to none, mild, moderate, and severe. The primary symptoms are recorded as 0, 2, 4 and 6 points, respectively, while the secondary symptoms are recorded as 0, 1, 2 and 3 points, respectively.

[4] = decoction 100 mL Bid or esomeprazole capsule 20 mg Bid, after the test

Question: How did the “Efficacy (total effective rate)” value ([1]; listed as Control) turn out when `COc1ccc2[n-]c([S+]([O-])Cc3ncc(C)c(OC)c3C)nc2c1.COc1ccc2[n-]c([S+]([O-])Cc3ncc(C)c(OC)c3C)nc2c1.[Mg+2]` (stereo not drawn) [esomeprazole magnesium soluble capsule, esomeprazole magnesium] was run?
Answer: Its value is 82.50%.

Question: What about the “Efficacy (total effective rate)” value ([1]; listed as control group) of the same compound?
Answer: Its value is 82.5%.

Question: And the “Effective (number of patients)” value [1, 4]?
Answer: The value was 23.

Question: What about the “Invalid (number of patients)” value [1, 4] of the same compound?
Answer: The value was 7.

Question: And the “Recovery (number of patients)” value [1, 4]?
Answer: The value was 4.

Question: What about the “Significant effect (number of patients)” value [1, 4] of the same compound?
Answer: Its value is 6.

Question: And the “RDQ score after treatment” value [2]?
Answer: The value was 13.73 ± 4.59^[4].

Question: And the “TCM symptom score after treatment” value ([3]; after treatment)?
Answer: Its value is 8.43 ± 4.29^[4].

Question: And the “TCM symptom score before treatment” value ([3]; baseline)?
Answer: Its value is 17.85 ± 4.07^[2].
